One may read the EC50 as the concentration at which the effect is half-maximal. Lower therefore signals higher potency in that assay. One may read the pEC50 as the negative decadic logarithm of the EC50, by convention in mol/L. Low values mean a high EC50, high ones a low EC50. One may read the Kd as a measure of binding affinity in units of concentration. A lower Kd goes with tighter binding. The pKd is −log10 of the Kd, conventionally taken in molar units. Low readings indicate a large Kd, high ones a small Kd.

These results are taken from ChEMBL document CHEMBL2429717 (J Med Chem, 2013).

For assay [1], the system named is Jurkat. Description: Cytotoxicity against human Jurkat cells assessed as growth inhibition. In kind it is functional, cell-based.
A short description of assay [2]: Induction of interphase microtubule depolymerization in rat A10 cells. In kind it is cell-based.
Assay [3] concerns the target Tubulin. Kind of assay: Displacement of [3H]colchicine from tubulin (unknown origin). In kind it is protein-complex assay, Homo sapiens. A general note: In a radioligand displacement assay an active substance lowers the binding of a labelled ligand.
A short description of assay [4]: Induction of interphase microtubule depolymerization in rat A10 cells after 18 to 24 hrs by DAPI staining-based indirect immunofluorescence assay. The class given is cell-based.
Assay [5] concerns MDA-MB-435. Description: Cytotoxicity against human MDA-MB-435 cells assessed as growth inhibition. The class given is functional, cell-based.
Assay [6] concerns MDA-MB-435. Kind of assay: Cytotoxicity against human MDA-MB-435 cells assessed as growth inhibition after 72 hrs by SRB assay. The class given is functional, cell-based. As to conditions: MDA-MB-435, 72 h. A general note: In SRB staining, fixed cells bind dye roughly in proportion to their protein.

In the case of `O=C1/C(=C/c2cc(Cl)cc(Cl)c2)Cc2cc(O)c(O)cc21`, the IC50 was over 50 µM in assay [1] (read-out: IC50) and 100 µM in assay [1] (read-out: pIC50 (converted)).
With `COc1cc2c(c(N)c1OC)C(=O)/C(=C/c1cc(C)c(O)c(C)c1)C2`, the IC50 in assay [1] (read-out: IC50) and in assay [1] (read-out: pIC50 (converted)) was 0.001 µM each time.
In assay [2], `COc1ccc([C@H]2[C@H](c3cc(OC)c(OC)c(OC)c3)C(C)=NN2C(C)=O)cc1O` gave an EC50 of 4.5 µM and a pEC50 of 5.35.
As for `COc1ccc(-c2oc3c(OC)c(OC)c(OC)c(O)c3c(=O)c2OC)cc1O`, in assay [3], the Kd came out at 0.13 µM.
For `COC(=O)c1[nH]c(Br)c(-c2ccc(OC)c(OC)c2)c1Br`, in assay [4], it took 5 µM to reach a half-maximal effect (EC50) and the pEC50 is on record as 5.3.
For `CCCOC(=O)c1[nH]c(Br)c(-c2ccc(OC)c(OC)c2)c1Br`, in that order: 3.3 µM and 5.48.
The like results for `COc1ccc(-c2c(Br)[nH]c(C(=O)OC(C)C)c2Br)cc1OC` were, in that order, 3.6 µM and 5.44.
For `COc1ccc(-c2c(Br)[nH]c(C(=O)OC(C)(C)C)c2Br)cc1OC`, in that order: 25 µM and 4.6.
In assay [4], `CCCCOC(=O)c1[nH]c(Br)c(-c2ccc(OC)c(OC)c2)c1Br` displayed an EC50 of 33 µM and a pEC50 of 4.48.
The like results for `CCCCCCOC(=O)c1[nH]c(Br)c(-c2ccc(OC)c(OC)c2)c1Br` were, in that order, 14 µM and 4.85.
The like results for `COc1ccc(-c2c(Br)[nH]c(C(=O)OCc3ccccc3)c2Br)cc1OC` were, in that order, 100 µM and 4.
The like results for `COc1ccc(-c2c(Br)[nH]c(C(=O)OCCCN(C)C)c2Br)cc1OC` were, in that order, 50 µM and 4.3.
`COc1ccc(-c2c(Br)[nH]c(C(=O)OCCN(C)C)c2Br)cc1OC`: in assay [4], it took 50 µM to reach a half-maximal effect (EC50) and the pEC50 is on record as 4.3.
The like results for `COc1ccc(-c2c(Br)[nH]c(C(=O)OCCCN(C)C)c2Br)cc1OC.Cl` were, in that order, 100 µM and 4.
The like results for `COc1ccc(-c2c(Br)[nH]c(C(=O)OCCN(C)C)c2Br)cc1OC.Cl` were, in that order, 100 µM and 4.
The like results for `COc1ccc(OC(=O)c2[nH]c(Br)c(-c3ccc(OC)c(OC)c3)c2Br)cc1` were, in that order, 100 µM and 4.
Turning to `Cc1nc2c(c(N(C)c3ccccc3)n1)C[C@@H](C)C2`, in assay [2], the EC50 stood at 520 µM and the pEC50 is on record as 3.28. For the same compound, the IC50 in assay [5] (read-out: IC50) was 7.1 µM. The IC50 in assay [5] (read-out: pIC50 (converted)) is 7.08 µM.
With `CCOC(=O)c1c(-c2ccc(OC)c(OC)c2)c(-c2ccc(OC)c(OC)c2)cn1CCc1ccc(OC)c(OC)c1`, in assay [2], a half-maximal effect (EC50) was put at 500 µM and the pEC50 amounted to 3.3. For the same compound, the IC50 in assay [5] (read-out: IC50) amounted to 100 µM. In addition, in assay [5] (read-out: pIC50 (converted)), the IC50 is 100 µM.
For the compound `COc1ccc(N(C)c2nc(C)nc3cc[nH]c23)cc1`, the IC50 in assay [6] (read-out: IC50) is 0.097 µM; in assay [6] (read-out: pIC50 (converted)), 0.0955 µM. A half-maximal response in assay [4] (EC50) required 1.2 µM. This compound also returned a pEC50 in assay [4] of 5.92.
The like results for `COc1ccc(N(C)c2ncnc3cc[nH]c23)cc1` were, in that order, 0.193 µM, 0.195 µM, 1.4 µM and 5.85.
For `COc1ccc(N(C)c2nc(C)nc3cc(C)[nH]c23)cc1`, in that order: 0.03 µM, 0.0302 µM, 0.22 µM and 6.66.
The like results for `COc1ccc(N(C)c2nc(N)nc3cc(C)[nH]c23)cc1` were, in that order, 0.298 µM, 0.295 µM, 8.4 µM and 5.08.
Consider `COc1ccc2c(c1)CCCN2c1nc(C)nc2cc[nH]c12`, for which the IC50 in assay [6] (read-out: IC50) is 0.043 µM; in assay [6] (read-out: pIC50 (converted)) it was 0.0427 µM. Besides, the EC50 in assay [4] came to 0.23 µM. Further, in assay [4], the pEC50 was 6.64.
In turn, `COc1cccc(N(C)c2nc(C)nc3c2C[C@H](C)C3)c1` yielded an EC50 in assay [2] of 1.6 µM. Further, the pEC50 in assay [2] stood at 5.8. Moreover, the IC50 is 0.095 µM in assay [5] (read-out: IC50) and 0.0955 µM in assay [5] (read-out: pIC50 (converted)).
In assay [2], `Cc1nc2c(c(N(C)c3ccccc3)n1)C[C@H](C)C2` yielded an EC50 of 43 µM and a pEC50 of 4.37. Also, the IC50 in assay [5] (read-out: IC50) was 1.67 µM. For the same compound, the IC50 in assay [5] (read-out: pIC50 (converted)) was 1.66 µM.
The like results for `COc1ccc(Nc2nc(C)nc3c2C[C@@H](C)C3)cc1` were, in that order, 520 µM, 3.28, 51 µM and 51.3 µM.
As for `COc1cccc(N(C)c2nc(C)nc3c2C[C@@H](C)C3)c1`, in assay [2], the EC50 worked out at 6.9 µM. The pEC50 in assay [2] is on record as 5.16. Besides, the IC50 is 0.402 µM in assay [5] (read-out: IC50) and 0.398 µM in assay [5] (read-out: pIC50 (converted)).
The like results for `CCOC(=O)c1[nH]c(Br)c(-c2cccc3ccccc23)c1Br` were, in that order, 7 µM, 5.15, 3.2 µM and 3.24 µM.
The like results for `CCOC(=O)c1[nH]c(Br)c(-c2c[nH]c3ccccc23)c1Br` were, in that order, 18 µM, 4.75, 2 µM and 2 µM.
The like results for `CCOC(=O)c1[nH]c(Br)c(-c2ccc(OC(F)(F)F)cc2)c1Br` were, in that order, 27 µM, 4.57, 1.7 µM and 1.7 µM.
In assay [2], `CCOC(=O)c1[nH]c(Br)c(-c2ccc(SC)cc2)c1Br` showed an EC50 of 19 µM and a pEC50 of 4.73. In addition, the IC50 in assay [5] (read-out: IC50) came out at 0.626 µM. In addition, in assay [5] (read-out: pIC50 (converted)), the IC50 was 0.631 µM.
The compound `CCOC(=O)c1[nH]c(Br)c(-c2ccc(Cl)c(Cl)c2)c1Br` had an EC50 in assay [2] of 9.9 µM. In assay [2], the pEC50 is 5. Besides, the IC50 is 0.806 µM in assay [5] (read-out: IC50) and 0.813 µM in assay [5] (read-out: pIC50 (converted)).
The like results for `CCOC(=O)c1[nH]c(Br)c(-c2ccc(OC)c(F)c2)c1Br` were, in that order, 14 µM, 4.85, 0.539 µM and 0.537 µM.
The like results for `CCOC(=O)c1[nH]c(Br)c(-c2ccc3cc(OCC)ccc3c2)c1Br` were, in that order, 33 µM, 4.48, 2 µM and 2 µM.
The like results for `CCOC(=O)c1[nH]c(Br)c(-c2ccc3c(c2)OCO3)c1Br` were, in that order, 30 µM, 4.53, 1.8 µM and 1.82 µM.
Take `CCOC(=O)c1[nH]c(Br)c(-c2ccc3c(c2)OCCO3)c1Br`: in assay [2], the midpoint of the response, the EC50, lay at 21 µM and the pEC50 is 4.68. Also, in assay [5] (read-out: IC50), the IC50 was 4.4 µM. In addition, the IC50 in assay [5] (read-out: pIC50 (converted)) is 4.37 µM.
The like results for `CCOC(=O)c1[nH]c(Br)c(-c2cccc(OC)c2)c1Br` were, in that order, 2.4 µM, 5.62, 0.633 µM and 0.631 µM.
In assay [2], `CCOC(=O)c1cc(-c2ccc(OC)cc2)c(C(=O)c2ccc(OC)cc2)[nH]1` came in with an EC50 of 100 µM and a pEC50 of 4. The IC50 in assay [5] (read-out: IC50) worked out at 3 µM. For the same compound, the IC50 in assay [5] (read-out: pIC50 (converted)) is 3.02 µM.
In turn, `CCOC(=O)c1[nH]c(C(=O)c2ccc(OC)cc2)c(-c2ccc(OC)cc2)c1Br` showed an EC50 in assay [2] of 500 µM. Also, in assay [2], the pEC50 is given as 3.3. In addition, the IC50 in assay [5] (read-out: IC50) and in assay [5] (read-out: pIC50 (converted)) was 100 µM in each case.
For the compound `CCOC(=O)c1c[nH]c(C(=O)c2ccc(OC)cc2)c1-c1ccc(OC)cc1`, a half-maximal effect in assay [2] (EC50) was put at 500 µM. Besides, the pEC50 in assay [2] is listed as 3.3. Also, the IC50 in assay [5] (read-out: IC50) and in assay [5] (read-out: pIC50 (converted)) was 100 µM each time.
Regarding `CCOC(=O)c1[nH]c(Br)c(-c2ccc(Cl)cc2)c1Br`, in assay [2], the midpoint of the response, the EC50, lay at 83 µM and the pEC50 amounted to 4.08.
On to `CCOC(=O)c1[nH]c(Br)c(-c2ccc(OC)cc2)c1Br`, for which, in assay [2], the EC50 was found to be 7 µM and the pEC50 is on record as 5.15. For the same compound, the IC50 in assay [5] (read-out: IC50) came out at 0.843 µM. In assay [5] (read-out: pIC50 (converted)), the IC50 was 0.851 µM.
In assay [2], `CCOC(=O)c1[nH]c(Br)c(-c2ccc(Br)cc2)c1Br` showed an EC50 of 94 µM and a pEC50 of 4.03.
`CCOC(=O)c1[nH]c(C(=O)c2ccc(OC)cc2)c(-c2ccc(OC)cc2)c1-c1ccc(OC)cc1` gave an EC50 in assay [2] of 500 µM. The compound further showed a pEC50 in assay [2] of 3.3. Moreover, the IC50 in assay [5] (read-out: IC50) and in assay [5] (read-out: pIC50 (converted)) was 100 µM each time.
In assay [2], `CCOC(=O)c1[nH]c(Br)c(-c2ccccc2)c1Br` gave an EC50 of 167 µM and a pEC50 of 3.78. Moreover, the IC50 in assay [5] (read-out: pIC50 (converted)) was 10.2 µM.
Compound `COc1ccc(C(=O)c2[nH]c(C(=O)c3ccc(OC)cc3)c(-c3ccc(OC)cc3)c2-c2ccc(OC)cc2)cc1` gave an EC50 in assay [2] of 500 µM. The pEC50 in assay [2] is on record as 3.3. For the same compound, the IC50 in assay [5] (read-out: IC50) and in assay [5] (read-out: pIC50 (converted)) was 100 µM in each case.
`CCOC(=O)c1[nH]c(Br)c(-c2ccc(C)cc2)c1Br`: in assay [2], a half-maximal response (EC50) required 75 µM and the pEC50 stood at 4.12. In assay [5] (read-out: pIC50 (converted)), the IC50 is 2.24 µM.
For the compound `CCOC(=O)c1[nH]c(Br)c(-c2cc(OC)c(OC)c(OC)c2)c1Br`, in assay [2], the EC50 was found to be 71 µM and the pEC50 was 4.15.
With `CCOC(=O)c1[nH]c(Br)c(-c2cc(OC)c(OC)cc2Br)c1Br`, in assay [2], the EC50 was 14 µM and the pEC50 is 4.85. Besides, the IC50 in assay [5] (read-out: IC50) worked out at 2.6 µM. The IC50 in assay [5] (read-out: pIC50 (converted)) is 2.63 µM.
In assay [2], `CCOC(=O)c1[nH]cc(-c2ccc(OC)cc2)c1-c1ccc(OC)cc1` returned an EC50 of 500 µM and a pEC50 of 3.3.
As to `COc1ccc(-c2oc3cc(O)c(OC)cc3c(=O)c2OC)cc1O`, the affinity in assay [3], expressed as Kd, was 6 µM.
In the case of `O=c1c(O)c(-c2ccc(O)cc2O)oc2cc(O)cc(O)c12` [MORIN], in assay [3], the Kd was over 100 µM and the pKd worked out at 3.7.
